The values below are quoted from earlier work in US20260015580A1, “Methods of Producing and Using Avian Embryonic Stem Cells and Avian Telencephalic Organoids” (The Regents of the University of California, priority 2022, published 2026).

For orientation: IC50 means the concentration at which inhibition is half-maximal.

This data set has as its system phosphorylation of ERK in C26 cells. The conditions noted are these: read-out: IC50, suppressing the phosphorylation of ERK.

Regarding `O=C(NOC[C@H](O)CO)c1ccc(F)c(F)c1Nc1ccc(I)cc1F` [PD0325901], the IC50 is 0.33 nM.
